Holding throughout (type): cell-based
For one assay, the system named is Rhizopus sp. Description: In vitro mycelial/spore growth on potato-sucrose-agar, percent disease control (RS, second column). As to conditions: read-out: % controlled, RS. The protocol: (§1) The compounds of this invention were dissolved respectively in acetone in an amount equal to 10% of the final volume and then in purified water at the concentration of 100 ppm and 50 ppm.
(§2) Each of the solution was mixed with potato-sucrose-agar medium in 6" petri dish and one of the fungi was spotted at the center of the dish. The dish was incubated in growth room for several days. The percent disease control was derived from the radii of spore growth. The screening tests in vitro condition are well-known to those skilled in the art.
(§3) The following fungi were used for the screening.
9) Rhi. sp.; Rhizopus sp.

For another assay, the system named is Botryosphaeri. Description: In vitro mycelial/spore growth on potato-sucrose-agar, percent disease control (BD). Particulars: read-out: % controlled, BD. How it is done:
as §1, §2, §3
4) Bo. do (Ma); Botryosphaeri

For a further assay, the system named is Botritis cinerea. In words: In vitro mycelial/spore growth on potato-sucrose-agar, percent disease control (BC). Particulars: read-out: % controlled, BC. The protocol: as §1, §2, §3
10) Bo. ci.; Botritis cinerea

The next assay concerns Pyricalaria oryzae. Description: In vitro mycelial/spore growth on potato-sucrose-agar, percent disease control (PO). As to conditions: read-out: % controlled, PO. How it is done: as §1, §2, §3
6) Py. or.; Pyricalaria oryzae

A further assay has as its system Fusarium moniliforme. In words: In vitro mycelial/spore growth on potato-sucrose-agar, percent disease control (FM). Particulars: Fusarium verticillioides, read-out: % controlled, FM. How it is done:
as §1, §2, §3
8) Fu. mo.; Fusarium moniliforme

The subject of a further assay is GC. Description: In vitro mycelial/spore growth on potato-sucrose-agar, percent disease control (GC). Particulars: read-out: % controlled, GC; for inhibition of growth at 50 ppm: GC. How it is done: as §1, §2, §3
A further assay has as its system Phytophthora capsisi. In words: In vitro mycelial/spore growth on potato-sucrose-agar, percent disease control (PC). As to conditions: read-out: % controlled, PC. How it is done:
as §1, §2, §3
2) Phy. ca.; Phytophthora capsisi

The next assay concerns Rhizoctonia solani. Description: In vitro mycelial/spore growth on potato-sucrose-agar, percent disease control (RS, first column). Particulars: read-out: % controlled, RS. How it is done:
as §1, §2, §3
7) Rhi. so.; Rhizoctonia solani

SMILES strings stand for the structures. Where two headings read alike, the source gives them in different places.

On to `CC(n1cncn1)[Si]1(c2ccc(F)cc2)CCCCC1` (stereo not drawn) [1-(4-fluorophenyl)-1-[α-(1H-1,2,4-triazole-1-yl)ethyl]-1-silacyclohexane], for which the inhibition of growth at 50 ppm with Rhizopus sp. (50 ppm, Rhizopus sp.) stood at 76%; with Botryosphaeri it was 100%; in the assay with Botritis cinerea it was 100%; in the assay on Pyricalaria oryzae it was 100%; in the assay with Fusarium moniliforme (50 ppm, Fusarium moniliforme) it was 100%; in the assay on GC it was 100%. Further, the inhibition of growth at 50 ppm was determined as 77% in the assay with Phytophthora capsisi and 100% with Rhizoctonia solani. Besides, the inhibition of growth at 200 ppm came out at 86% in the assay with Rhizopus sp. (Rhizopus); 100% in the assay with Botryosphaeri; 100% in the assay on Botritis cinerea; 100% in the assay with Pyricalaria oryzae; 100% with Fusarium moniliforme (Fusarium moniliforme); 100% with GC. Besides, the figures for the inhibition of growth at 200 ppm with Phytophthora capsisi and in the assay with Rhizoctonia solani were 85% and 100%, respectively.
Turning to `Clc1ccc([Si]2(Cn3cncn3)CCCC2)cc1` [1-(4-chlorophenyl)-1-(1H-1,2,4-triazole-1-yl)methyl-1-silacyclopentane], the inhibition of growth at 50 ppm is 67% in the assay on Rhizopus sp. (50 ppm, Rhizopus sp.); 70% in the assay on Botryosphaeri; 100% in the assay on Botritis cinerea; 100% in the assay on Pyricalaria oryzae; 100% with Fusarium moniliforme (50 ppm, Fusarium moniliforme); 100% with GC. Moreover, the inhibition of growth at 50 ppm in the assay with Phytophthora capsisi was 15%; in the assay with Rhizoctonia solani, 95%. Further, the inhibition of growth at 200 ppm in the assay on Rhizopus sp. (Rhizopus) was found to be 75%; in the assay on Botryosphaeri, 99%; in the assay on Botritis cinerea, 100%; in the assay on Pyricalaria oryzae, 100%; in the assay with Fusarium moniliforme (Fusarium moniliforme), 100%; in the assay with GC, 100%. The values for the inhibition of growth at 200 ppm in the assay with Phytophthora capsisi and in the assay on Rhizoctonia solani were 98% and 100%, respectively.
In the case of `Fc1ccc([Si]2(Cn3cncn3)CCCCC2)c(F)c1` [1-(2,4-difluorophenyl)-1-(1H-1,2,4-triazole-1-yl)methyl-1-silacyclohexane], the inhibition of growth at 50 ppm was found to be 53% in the assay with Rhizopus sp. (50 ppm, Rhizopus sp.); 100% with Botryosphaeri; 100% with Botritis cinerea; 100% in the assay with Pyricalaria oryzae; 100% with Fusarium moniliforme (50 ppm, Fusarium moniliforme); 100% in the assay on GC. Further, the figures for the inhibition of growth at 50 ppm in the assay with Phytophthora capsisi and in the assay with Rhizoctonia solani were 67% and 41%, respectively. The inhibition of growth at 200 ppm turned out to be 61% with Rhizopus sp. (Rhizopus); 100% with Botryosphaeri; 100% in the assay with Botritis cinerea; 100% in the assay with Pyricalaria oryzae; 100% in the assay with Fusarium moniliforme (Fusarium moniliforme); 100% in the assay with GC. Moreover, the results for the inhibition of growth at 200 ppm in the assay with Phytophthora capsisi and with Rhizoctonia solani were 89% and 61%, respectively.
Turning to `COc1ccc([Si]2(Cn3cncn3)CCCC2)cc1` [1-(4-methoxyphenyl)-1-(1H-1,2,4-triazole-1-yl)methyl-1-silacyclopentane], the inhibition of growth at 50 ppm turned out to be 64% with Rhizopus sp. (50 ppm, Rhizopus sp.); 75% in the assay with Botryosphaeri; 72% in the assay on Botritis cinerea; 100% in the assay with Pyricalaria oryzae; 70% in the assay on Fusarium moniliforme (50 ppm, Fusarium moniliforme); 100% in the assay with GC. The inhibition of growth at 50 ppm with Phytophthora capsisi came to 41%; in the assay on Rhizoctonia solani it was 74%. The inhibition of growth at 200 ppm was determined as 75% with Rhizopus sp. (Rhizopus); 79% in the assay on Botryosphaeri; 77% in the assay with Botritis cinerea; 100% in the assay with Pyricalaria oryzae; 80% with Fusarium moniliforme (Fusarium moniliforme); 100% in the assay on GC. Further, the inhibition of growth at 200 ppm in the assay on Phytophthora capsisi and in the assay on Rhizoctonia solani was 100% throughout.
Take `Fc1ccc([Si]2(Cn3cncn3)CCCC2)cc1` [1-(4-fluorophenyl)-1-(1H-1,2,4-triazole-1-yl)methyl-1-silacyclopentane]: the inhibition of growth at 50 ppm in the assay on Rhizopus sp. (Rhizopus) was found to be 75%; in the assay on Botryosphaeri it was 100%; in the assay with Botritis cinerea it was 100%; with Pyricalaria oryzae, 100%; in the assay with Fusarium moniliforme, 10%; in the assay with GC, 100%. Further, the results for the inhibition of growth at 50 ppm in the assay with Phytophthora capsisi and with Rhizoctonia solani were 80% and 95%, respectively. Further, the inhibition of growth at 200 ppm in the assay with Rhizopus sp. (Rhizopus) is 83%; in the assay with Botryosphaeri, 100%; in the assay with Botritis cinerea, 100%; with Pyricalaria oryzae, 100%; in the assay with Fusarium moniliforme (Fusarium moniliforme), 100%; in the assay with GC, 100%. Moreover, the inhibition of growth at 200 ppm with Phytophthora capsisi and in the assay with Rhizoctonia solani was 100% in each case.
Take `CC(n1cncn1)[Si]1(c2ccc(Cl)cc2Cl)CCCC1` (stereo not drawn) [1-(2,4-dichlorophenyl)-1-[α-(1H-1,2,4-triazole-1-yl)ethyl)-1-silacyclopentane]: the inhibition of growth at 50 ppm in the assay with Rhizopus sp. (50 ppm, Rhizopus sp.) was 68%; in the assay on Botryosphaeri it was 95%; in the assay with Botritis cinerea, 92%; with Pyricalaria oryzae it was 100%; in the assay on Fusarium moniliforme (50 ppm, Fusarium moniliforme), 100%; with GC, 100%. Moreover, the results for the inhibition of growth at 50 ppm in the assay with Phytophthora capsisi and in the assay on Rhizoctonia solani were 83% and 69%, respectively. For the same molecule, the inhibition of growth at 200 ppm with Rhizopus sp. (Rhizopus) turned out to be 94%; in the assay with Botryosphaeri, 100%; with Botritis cinerea, 100%; in the assay with Pyricalaria oryzae, 100%; with Fusarium moniliforme (Fusarium moniliforme), 100%; with GC, 100%. Also, the inhibition of growth at 200 ppm in the assay with Phytophthora capsisi stood at 96%; in the assay on Rhizoctonia solani it was 87%.
As for `c1ccc(-c2ccc([Si]3(Cn4cncn4)CCCCC3)cc2)cc1` [1-(4-biphenyl)-1-(1H-1,2,4-triazole-1-yl)methyl-1-silacyclohexane], the inhibition of growth at 50 ppm in the assay with Rhizopus sp. (50 ppm, Rhizopus sp.) came out at 72%; in the assay on Botryosphaeri, 100%; in the assay on Botritis cinerea, 100%; in the assay with Pyricalaria oryzae, 100%; with Fusarium moniliforme (50 ppm, Fusarium moniliforme), 100%; in the assay on GC, 100%. Also, the inhibition of growth at 50 ppm in the assay on Phytophthora capsisi was found to be 92%; in the assay on Rhizoctonia solani, 71%. Moreover, the inhibition of growth at 200 ppm with Rhizopus sp. (Rhizopus) is 94%; in the assay with Botryosphaeri it was 100%; with Botritis cinerea, 100%; with Pyricalaria oryzae, 100%; in the assay on Fusarium moniliforme (Fusarium moniliforme), 100%; in the assay on GC it was 100%. Moreover, the inhibition of growth at 200 ppm is 100% with Phytophthora capsisi and 80% with Rhizoctonia solani.
Take `CC(n1cncn1)[Si]1(c2ccc(C(F)(F)F)cc2)CCCCC1` (stereo not drawn) [1-(4-trifluoromethyl)-1-[α-(1H-1,2,4-triazole-1-yl)ethyl]-1-silacyclohexane]: the inhibition of growth at 50 ppm came to 47% in the assay on Rhizopus sp. (50 ppm, Rhizopus sp.); 100% in the assay on Botryosphaeri; 66% with Botritis cinerea; 100% in the assay on Pyricalaria oryzae; 58% with Fusarium moniliforme (50 ppm, Fusarium moniliforme); 100% with GC. Also, the inhibition of growth at 50 ppm in the assay on Phytophthora capsisi turned out to be 39%; in the assay with Rhizoctonia solani it was 99%. Further, the inhibition of growth at 200 ppm was 56% in the assay on Rhizopus sp. (Rhizopus); 100% with Botryosphaeri; 99% with Botritis cinerea; 100% with Pyricalaria oryzae; 99% in the assay with Fusarium moniliforme (Fusarium moniliforme); 100% in the assay with GC. The inhibition of growth at 200 ppm in the assay with Phytophthora capsisi stood at 78%; in the assay with Rhizoctonia solani it was 100%.
Take `CC(n1cncn1)[Si]1(c2ccc(F)cc2F)CCCCC1` (stereo not drawn) [1-(2,4-difluorophenyl)-1-[α-(1H-1,2,4-triazole-1-yl)ethyl]-1-silacyclohexane]: the inhibition of growth at 50 ppm in the assay with Rhizopus sp. (50 ppm, Rhizopus sp.) stood at 53%; in the assay on Botryosphaeri, 100%; with Botritis cinerea it was 100%; in the assay with Pyricalaria oryzae, 100%; in the assay with Fusarium moniliforme (50 ppm, Fusarium moniliforme) it was 100%; in the assay with GC it was 100%. The inhibition of growth at 50 ppm is 82% in the assay on Phytophthora capsisi and 96% in the assay with Rhizoctonia solani. In addition, the inhibition of growth at 200 ppm in the assay on Rhizopus sp. (Rhizopus) was determined as 79%; in the assay with Botryosphaeri it was 100%; in the assay with Botritis cinerea, 100%; with Pyricalaria oryzae it was 100%; with Fusarium moniliforme (Fusarium moniliforme), 100%; in the assay on GC, 100%. Besides, the inhibition of growth at 200 ppm in the assay on Phytophthora capsisi and in the assay with Rhizoctonia solani was 100% in each case.

For the origin of these results see patent US5455356A, “Fungicidal 1-aryl-1-[α-(triazolyl)alkyl]-1-silacycloalkanes and their preparation methods” (priority 1993, dated 1995).
